Assay results published in patent US20150086530A1, “DOSING REGIMENS FOR THE TREATMENT OF POMPE DISEASE” (Amicus Therapeutics, Inc., priority 2012, published 2015).

Assays:
[1] = test system: GAA; assay: rhGAA activity in WBC (PBMCs) of Pompe patients; format: in vivo, human
Text: GAA activity in WBCs will be determined in blood samples by a validated assay measuring enzyme activity using 4-MUG, with and without Con A. GAA protein levels will be measured by Western blotting using anti-human GAA antibody.

[2] = Thigh muscle MRI before and after ERT; format: in vivo; conditions: at one year of ERT
[3] = Cohort 1 (50 mg AT2220 in Period 2), Day 2, arithmetic mean, N 4
[4] = Cohort 1 (50 mg AT2220 in Period 2), Day 7, arithmetic mean, N 4
[5] = Cohort 1 (50 mg AT2220 in Period 2), Time 0, arithmetic mean, N 4
[6] = Cohort 1 (50 mg AT2220 in Period 2), Time 4 h, arithmetic mean, N 4
[7] = Cohort 2 (100 mg AT2220 in Period 2), Day 2, arithmetic mean, N 6
[8] = Cohort 2 (100 mg AT2220 in Period 2), Day 3, arithmetic mean, N 3
[9] = Cohort 2 (100 mg AT2220 in Period 2), Day 7, arithmetic mean, N 3
[10] = Cohort 2 (100 mg AT2220 in Period 2), Time 0, arithmetic mean, N 6
[11] = Cohort 2 (100 mg AT2220 in Period 2), Time 4 h, arithmetic mean, N 6
[12] = Cohort 3 (250 mg AT2220 in Period 2), Day 2, arithmetic mean, N 6
[13] = Cohort 3 (250 mg AT2220 in Period 2), Day 3, arithmetic mean, N 3
[14] = Cohort 3 (250 mg AT2220 in Period 2), Day 7, arithmetic mean, N 3
[15] = Cohort 3 (250 mg AT2220 in Period 2), Time 0, arithmetic mean, N 6
[16] = Cohort 3 (250 mg AT2220 in Period 2), Time 4 h, arithmetic mean, N 6

Substance: rhGAA: human recombinant acid α-glucosidase; alglucosidase alfa (Myozyme/Lumizyme) enzyme replacement therapy given by intravenous infusion
- rhGAA Activity in PBMCs, % Change from Period 1 [1, 3]: −13.9%
- rhGAA Activity in PBMCs, Period 2/Period 1 Ratio [1, 3]: 0.9
- rhGAA Activity in PBMCs, % Change from Period 1 [1, 4]: 4.1%
- rhGAA Activity in PBMCs, Period 2/Period 1 Ratio [1, 4]: 1.0
- rhGAA Activity in PBMCs, % Change from Period 1 [1, 5]: 157%
- rhGAA Activity in PBMCs, Period 2/Period 1 Ratio [1, 5]: 2.6
- rhGAA Activity in PBMCs, % Change from Period 1 [1, 6]: −17.5%
- rhGAA Activity in PBMCs, Period 2/Period 1 Ratio [1, 6]: 0.8
- rhGAA Activity in PBMCs, % Change from Period 1 [1, 7]: 81.0%
- rhGAA Activity in PBMCs, Period 2/Period 1 Ratio [1, 7]: 1.8
- rhGAA Activity in PBMCs, % Change from Period 1 [1, 8]: −36.7%
- rhGAA Activity in PBMCs, Period 2/Period 1 Ratio [1, 8]: 0.6
- rhGAA Activity in PBMCs, % Change from Period 1 [1, 9]: −5.9%
- rhGAA Activity in PBMCs, Period 2/Period 1 Ratio [1, 9]: 0.9
- rhGAA Activity in PBMCs, % Change from Period 1 [1, 10]: −12.4%
- rhGAA Activity in PBMCs, Period 2/Period 1 Ratio [1, 10]: 0.9
- rhGAA Activity in PBMCs, % Change from Period 1 [1, 11]: −8.4%
- rhGAA Activity in PBMCs, Period 2/Period 1 Ratio [1, 11]: 0.9
- rhGAA Activity in PBMCs, % Change from Period 1 [1, 12]: 47.5%
- rhGAA Activity in PBMCs, Period 2/Period 1 Ratio [1, 12]: 1.5
- rhGAA Activity in PBMCs, % Change from Period 1 [1, 13]: 240%
- rhGAA Activity in PBMCs, Period 2/Period 1 Ratio [1, 13]: 3.4
- rhGAA Activity in PBMCs, % Change from Period 1 [1, 14]: 49.0%
- rhGAA Activity in PBMCs, Period 2/Period 1 Ratio [1, 14]: 1.5
- rhGAA Activity in PBMCs, % Change from Period 1 [1, 15]: 107%
- rhGAA Activity in PBMCs, Period 2/Period 1 Ratio [1, 15]: 2.1
- rhGAA Activity in PBMCs, % Change from Period 1 [1, 16]: 1028%
- rhGAA Activity in PBMCs, Period 2/Period 1 Ratio [1, 16]: 11.3
- decrease in muscle mass in posterior thigh [2]: 11%
- decrease in muscle mass in the anterior thigh [2]: 9.8%
- increase in intramuscular fat accumulation [2]: 8.9%
- subcutaneous fat [2]: 6.6%
